Measurements reported in patent publication US8343961B2, “Substituted heterocyclic compounds” (ArQule, Inc., priority 2009, dated 2013).

How the values were obtained:
RET kinase = RET kinase (Homo sapiens, UniProt P07949); assay: RET Kinase Activity Assay; assay type: biochemical; settings: read-out: Ret, % INH, at 30 uM
Method in brief: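 RET […] was preincubated with compound for 15 min, then phosphorylated biotinylated Pyk-2 substrate for 1 h at room temperature with 75 μM ATP and 10 mM MgCl2. Product was captured on streptavidin plates and detected with anti-phosphotyrosine, an AP-tagged secondary antibody and Attophos fluorescence.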

Tec kinase = molecular target: T1, Tec kinase (Homo sapiens, UniProt P42680); assay: Tec Kinase Activity Assay; assay type: biochemical; settings: read-out: Tec % INH, at 30 uM
T1 sequence (P42680 1-631): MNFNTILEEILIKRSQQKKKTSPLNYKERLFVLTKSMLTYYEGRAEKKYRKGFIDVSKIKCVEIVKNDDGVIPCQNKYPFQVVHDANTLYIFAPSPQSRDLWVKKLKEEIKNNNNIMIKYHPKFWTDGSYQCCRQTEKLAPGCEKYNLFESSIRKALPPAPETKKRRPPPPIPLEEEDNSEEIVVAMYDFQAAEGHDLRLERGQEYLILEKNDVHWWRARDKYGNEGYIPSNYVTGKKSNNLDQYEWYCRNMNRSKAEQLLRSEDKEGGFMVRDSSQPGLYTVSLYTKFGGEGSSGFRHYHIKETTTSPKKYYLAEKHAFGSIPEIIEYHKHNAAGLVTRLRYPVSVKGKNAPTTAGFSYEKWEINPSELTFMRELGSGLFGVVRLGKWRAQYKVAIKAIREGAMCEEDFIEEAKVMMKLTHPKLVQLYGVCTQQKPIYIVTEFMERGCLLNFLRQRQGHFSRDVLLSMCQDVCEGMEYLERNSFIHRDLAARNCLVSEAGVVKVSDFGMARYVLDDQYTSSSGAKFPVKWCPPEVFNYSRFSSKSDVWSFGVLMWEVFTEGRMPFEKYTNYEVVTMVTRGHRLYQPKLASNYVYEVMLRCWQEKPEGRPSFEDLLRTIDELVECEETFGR
Method in brief: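 Biochemical Tec kinase reaction in Tris-HCl/MgCl2/EGTA/DTT buffer with 75 μM ATP, compound pre-incubated with enzyme for 30 min, then biotinylated Pyk-2 substrate added for 2 h at room temperature. Phosphorylated product captured on streptavidin and detected by anti-phosphotyrosine ELISA with alkaline phosphatase/Attophos fluorescence.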

Chain of RET kinase (P07949 29-1114): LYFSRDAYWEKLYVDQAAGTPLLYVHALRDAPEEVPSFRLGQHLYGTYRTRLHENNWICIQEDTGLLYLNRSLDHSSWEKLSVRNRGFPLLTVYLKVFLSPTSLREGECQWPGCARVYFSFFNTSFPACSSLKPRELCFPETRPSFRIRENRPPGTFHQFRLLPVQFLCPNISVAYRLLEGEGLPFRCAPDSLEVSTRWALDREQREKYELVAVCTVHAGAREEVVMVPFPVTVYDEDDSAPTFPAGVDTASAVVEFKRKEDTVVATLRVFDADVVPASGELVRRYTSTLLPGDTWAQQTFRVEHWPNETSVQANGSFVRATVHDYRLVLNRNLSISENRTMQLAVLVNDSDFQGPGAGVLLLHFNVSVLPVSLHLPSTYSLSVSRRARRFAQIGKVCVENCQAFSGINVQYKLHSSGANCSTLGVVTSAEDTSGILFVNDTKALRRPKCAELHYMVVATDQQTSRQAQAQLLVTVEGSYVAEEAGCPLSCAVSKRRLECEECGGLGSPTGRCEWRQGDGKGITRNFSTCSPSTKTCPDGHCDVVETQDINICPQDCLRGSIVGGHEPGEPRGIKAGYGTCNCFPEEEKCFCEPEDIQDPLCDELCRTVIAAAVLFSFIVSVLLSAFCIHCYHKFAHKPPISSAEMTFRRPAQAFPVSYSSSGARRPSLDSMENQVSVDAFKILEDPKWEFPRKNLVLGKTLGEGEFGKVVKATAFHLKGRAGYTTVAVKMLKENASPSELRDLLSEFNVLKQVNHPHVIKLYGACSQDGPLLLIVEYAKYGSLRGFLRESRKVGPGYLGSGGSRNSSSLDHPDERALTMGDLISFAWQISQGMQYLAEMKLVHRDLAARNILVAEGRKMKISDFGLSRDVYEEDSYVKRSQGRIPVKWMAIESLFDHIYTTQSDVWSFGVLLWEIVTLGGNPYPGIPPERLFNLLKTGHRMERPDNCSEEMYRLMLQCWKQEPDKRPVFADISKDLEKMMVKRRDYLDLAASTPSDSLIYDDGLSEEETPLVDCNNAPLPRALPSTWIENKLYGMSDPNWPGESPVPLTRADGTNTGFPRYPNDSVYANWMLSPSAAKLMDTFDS

Row | SMILES | inhibition at 30 µM (RET kinase) [%] | inhibition at 30 µM (Tec kinase) [%]
1 | COc1cc2c(cc1OC)C(c1cccc(Cl)c1F)N(c1nc(N)nc3[nH]cnc13)CC2 (stereo not shown) [Compound 49, 6-[1-(3-chloro-2-fluorophenyl)-6,7-dimethoxy-3,4-dihydroisoquinolin-2(1H)-yl]-9H-purin-2-amine] | < 50 | < 50
2 | COc1cc2c(cc1OC)C(CCc1ccccc1)N(c1nc(N)nc3[nH]ncc13)CC2 (stereo not shown) [Compound 51, 4-[6,7-dimethoxy-1-(2-phenylethyl)-3,4-dihydroisoquinolin-2(1H)-yl]-1H-pyrazolo[3,4-d]pyrimidin-6-amine] | 50 to 79 | < 50
